We go through 43 compounds from the OPERA property sets (Mansouri et al. 2018).

Structures are written as SMILES.

Details in the first series: not given
Consider `CCC(Oc1ccccc1)C(=O)O` (stereo not given), for which the boiling point (usually the temperature of boiling at a given pressure) was 258 °C and the melting point (in general, the temperature, or range, at which the solid turns liquid) was found to be 98 °C.
Compound `CCCOC(=O)c1cc(O)c(O)c(O)c1` had a melting point of 130 °C.
Take `CCCCOC(=O)/C=C\C(=O)OCCCC`: the boiling point was 281 °C, the log10 vapour pressure (mmHg) was -3.21 and the melting point is -85 °C.
On to `CC(O)Cn1c(=O)c2c(ncn2C)n(C)c1=O` (stereo not given), for which the melting point came out at 141 °C.
The same measure, in the same setting: under `Cl.Nc1ccccc1` stands 198 °C.
In turn, `NC(=O)C(F)(F)F` yielded a boiling point of 162 °C and a melting point of 72.5 °C.
On the same counts, the results for `Oc1c(F)c(F)cc(F)c1F` are 140 °C and 38 °C.
The corresponding values for `Cc1cnc2ccccc2n1` are 244 °C and 180 °C.
Compound `OCc1cccc(CO)c1` had a melting point of 57 °C.
Consider `C=C[Si]1(C)O[Si](C)(C=C)O[Si](C)(C=C)O[Si](C)(C=C)O1` (stereo not given), for which the boiling point turned out to be 224 °C and the melting point was -43.5 °C.
In the case of `O=C(CC(=O)C(F)(F)F)C(F)(F)F`, the boiling point was 70 °C.
The compound `Ic1ccc(I)s1` yielded a melting point of 41.5 °C.
In turn, `CCN(CC)C(=O)SCc1ccccc1Cl` returned a log10 vapour pressure (mmHg) of -4.03 and a melting point of 9 °C.
For the compound `Cc1cc(C)c(O)c(C(=O)CC2CC(=O)NC(=O)C2)c1`, the melting point worked out at 201 °C.
In turn, `O=c1oc2cc(O)ccc2s1` displayed a melting point of 160 °C.
`CNC(=O)Oc1cccc(N=CN(C)C)c1.Cl` yielded a log10 vapour pressure (mmHg) of -7.92.
Compound `CC(=O)[O-].[Na+]` returned a melting point of 324 °C.
As to `CCOC(=O)C(Cl)(Cl)C(C)=O`, the boiling point stood at 206 °C.
For the compound `Cc1ccc(CN)cc1`, the boiling point is 195 °C and the melting point was determined as 12.5 °C.
The corresponding values for `CCC#CCCCC` are 133 °C and -104 °C.
As for `C=COC(C)=O`, the boiling point is 72.5 °C, the log10 vapour pressure (mmHg) was found to be 1.96, the melting point was -93.2 °C and the ready biodegradability result is on record as “readily biodegradable”.
Compound `O=[N+]([O-])c1cc(F)cc(F)c1` yielded a boiling point of 176 °C and a melting point of 17 °C.
As for `CC(O)=S`, the boiling point was 93 °C.
With `COCOC`, the boiling point is 42 °C, the log10 Henry constant (atm·m³/mol) is -3.76, the log10 vapour pressure (mmHg) turned out to be 2.6 and the melting point is -105 °C.
Regarding `c1ccc(-c2ccc3ccccc3n2)cc1`, the boiling point is 363 °C and the melting point is 86 °C.
In turn, `CCCN(CCC)c1c([N+](=O)[O-])cc(C(F)(F)F)c(N)c1[N+](=O)[O-]` registered a log10 Koc (L/kg) of 4.11, a log10 vapour pressure (mmHg) of -7.61 and a melting point of 124 °C.
Take `CCCCCCCCCCCCCCCCCCCBr`: the log10 vapour pressure (mmHg) is -5.65.
Turning to `CCOC(=O)CC`, the boiling point was 99.1 °C, the log10 Koa is 3.15, the log10 vapour pressure (mmHg) worked out at 1.55 and the melting point was -73.9 °C.
`CCCCCCCCCOCCCCCCCCC` displayed a log10 vapour pressure (mmHg) of -4.28.
On to `CC(=S)Nc1ccccc1`, for which the melting point is 77.5 °C.
Consider `Cc1[nH]c(=O)n(C(C)C)c(=O)c1Br`, for which the log10 Koc (L/kg) worked out at 2.11 and the melting point came to 158 °C.
As to `CCCCOC(N)=O`, the melting point worked out at 53 °C.
`Fc1c(F)c(F)c(Cl)c(F)c1F` came in with a boiling point of 118 °C and a log10 vapour pressure (mmHg) of 1.25.
`C=CC1=CCCCC1` yielded a boiling point of 145 °C.
On to `OCC(CO)(CO)CO`, for which the melting point was 260 °C and the ready biodegradability entry is on record as “readily biodegradable”.
For `OCCBr`, the boiling point was found to be 150 °C.
The compound `CN(C)c1ccc(C(O)(c2ccccc2)c2ccc(N(C)C)cc2)cc1` yielded a melting point of 113 °C.
Regarding `Fc1ccc(F)c(F)c1F`, the boiling point turned out to be 94.3 °C, the log10 vapour pressure (mmHg) is 1.69 and the melting point is -42 °C.
With `O=C1CCCCCN1`, the boiling point came to 270 °C, the log10 vapour pressure (mmHg) is -2.8, the melting point was 69.3 °C and the ready biodegradability result was “readily biodegradable”.
Take `CCN1C(=O)c2ccccc2C1Nc1ccc(OCCN2CCCCC2)cc1` (stereo not given): the melting point was found to be 106 °C.
The compound `c1coc(CSSCc2ccco2)c1` came in with a melting point of 10 °C.
On the same count and under the same terms, under `NS(=O)(=O)c1ccc(SCCCCO)cc1` stands 101 °C; under `O=c1cc(O)c2ccccc2o1`, 214 °C.

Still in this series, the particulars now being: fish.
`OCC(CO)(CO)CO` displayed a log10 BCF of 0.1.
